# Laboratory results published in ChEMBL document CHEMBL5608174, “Synthesis and biological evaluation of 4-phenyl-5-quinolinyl substituted isoxazole analogues as potent cytotoxic and tubulin polymerization inhibitors against ESCC” (Eur J Med Chem, 2024).
# Activity calls are given as the source filed them. The calls are words filed in the database; no cut-off is given here.
# Key:
# [1] = tested on: KYSE-30
# Description: Antiproliferative activity against human KYSE-30 cells assessed as inhibition of cell proliferation incubated for 48 hrs by MTT assay
# [2] = tested on: KYSE-30; assay: Induction of apoptosis in human KYSE-30 cells assessed as necrotic cells at 10 nmol/L incubated for 48 hrs by Annexin V-FITC/PI staining based flow cytometry analysis (reference value: 1.59 %); assay type: functional
# [3] = target: T1, Tubulin (Homo sapiens) (UniProt P68371+Q9H4B7+P0DPH7+P68366+Q13509+Q71U36+P04350+Q3ZCM7+P07437+P68363+Q9BQE3+Q6PEY2+Q13885+Q9BVA1+Q9BUF5); assay: Inhibition of tubulin polymerization in human KYSE-30 cells assessed as effect on mitotic phase at 5 to 20 nmol/L incubated for 24 hrs by DAPI staining based fluorescence microscopic analysis; assay type: cell-based; settings: dose 5-20 nmol/L
# [4] = tested on: Esophageal squamous cell carcinoma cell; assay: Induction of apoptosis in human Esophageal squamous cell carcinoma cell assessed as increase in caspase-9 activation at 5 to 20 nmol/L incubated for 48 hrs by Western blot analysis; assay type: functional, cell-based; settings: dose 5-20 nmol/L
# [5] = tested on: KYSE-30; assay: Induction of apoptosis in human KYSE-30 cells assessed as early apoptotic cells at 5 nmol/L incubated for 48 hrs by Annexin V-FITC/PI staining based flow cytometry analysis (reference value: 4.38 %); assay type: functional
# [6] = tested on: KYSE-30; assay: Induction of morphological changes in human KYSE-30 cells assessed as fragmentation at 5 to 20 nmol/L incubated for 48 hrs by Bright field microscopic analysis; assay type: functional, cell-based; settings: dose 5-20 nmol/L
# [7] = tested on: KYSE-30; assay: Effect on nuclear replication in human KYSE-30 cells at 5 to 20 nmol/L incubated for 24 hrs by DAPI staining based fluorescence microscopic analysis; assay type: functional, cell-based; settings: dose 5-20 nmol/L
# [8] = Toxicity in female BALB/c-nu nude mouse xenografted with human KYSE-30 cells assessed as change in kidney pathology at 6 to 12 mg/kg, ip administered for 15 days by H and E staining based analysis; assay type: organism-based; settings: in vivo, 360 h, dose 6-12 mg/kg, time 15 day
# [9] = tested on: KYSE-70 cell line; assay: Effect on nuclear replication in human KYSE-70 cells at 5 to 20 nmol/L incubated for 24 hrs by DAPI staining based fluorescence microscopic analysis; assay type: functional, cell-based; settings: dose 5-20 nmol/L
# [10] = tested on: KYSE-30; assay: Antitumor activity against human KYSE-30 cells xenografted in female BALB/c-nu nude mouse assessed as reduction in tumor volume at 6 to 12 mg/kg, ip administered daily for 15 days; assay type: functional, organism-based; settings: dose 6-12 mg/kg, time 15.0 day
# [11] = target: T1, Tubulin (Homo sapiens); assay: Inhibition of tubulin polymerization in human KYSE-30 cells assessed as multinucleation of cells at 5 to 20 nmol/L incubated for 24 hrs by DAPI staining based fluorescence microscopic analysis; assay type: cell-based; settings: dose 5-20 nmol/L
# [12] = tested on: KYSE-70 cell line; assay: Induction of cell cycle arrest in human KYSE-70 cells assessed as accumulation of cells at G2/M phase at 10 nmol/L by PI staining based flow cytometric analysis; assay type: functional
# [13] = tested on: KYSE-30; assay: Induction of cell cycle arrest in human KYSE-30 cells assessed as accumulation of cells at G2/M phase at 10 nmol/L by PI staining based flow cytometric analysis; assay type: functional
# [14] = tested on: KYSE-30; assay: Inhibition of colony formation in human KYSE-30 cells at 4 nmol/L incubated for 7 days by crystal violet staining based analysis; assay type: functional, cell-based; settings: time 7.0 day
# [15] = tested on: KYSE-30; assay: Inhibition of human KYSE-30 cells proliferation at 5 to 20 nmol/L incubated for 48 hrs by real time cellular analysis; assay type: functional, cell-based; settings: dose 5-20 nmol/L
# [16] = tested on: KYSE-30; assay: Antitumor activity against human KYSE-30 cells xenografted in female BALB/c-nu nude mouse assessed as reduction in tumor weight at 6 to 12 mg/kg, ip administered daily for 15 days; assay type: functional, organism-based; settings: dose 6-12 mg/kg, time 15.0 day
# [17] = Toxicity in female BALB/c-nu nude mouse xenografted with human KYSE-30 cells assessed as effect on serum ALT level at 6 to 12 mg/kg, ip administered for 15 days by biochemical analysis; assay type: organism-based; settings: in vivo, 360 h, dose 6-12 mg/kg, time 15 day
# [18] = tested on: KYSE-30; assay: Induction of apoptosis in human KYSE-30 cells assessed as early apoptotic cells at 10 nmol/L incubated for 48 hrs by Annexin V-FITC/PI staining based flow cytometry analysis (reference value: 4.38 %); assay type: functional
# [19] = Toxicity in female BALB/c-nu nude mouse xenografted with human KYSE-30 cells assessed as change in lung pathology at 6 to 12 mg/kg, ip administered for 15 days by H and E staining based analysis; assay type: organism-based; settings: in vivo, 360 h, dose 6-12 mg/kg, time 15 day
# [20] = target: Tubulin beta (Homo sapiens) (UniProt P68371+Q9H4B7+Q13509+P04350+Q3ZCM7+P07437+Q13885+Q9BVA1+Q9BUF5+A6NNZ2); assay: Binding affinity to beta-tubulin colchicine binding site in human KYSE-30 cells assessed as inhibition of EBI-beta-tubulin adduct band formation at 0 to 10 micromol/L preincubated for 2 hrs followed by EBI addition measured after 2 hrs by EBI competition based Western blotting analysis; assay type: cell-based; settings: dose 0-10 µmol/L, time 4.0 hrs
# [21] = Toxicity in female BALB/c-nu nude mouse xenografted with human KYSE-30 cells assessed as change in spleen pathology at 6 to 12 mg/kg, ip administered for 15 days by H and E staining based analysis; assay type: organism-based; settings: in vivo, 360 h, dose 6-12 mg/kg, time 15 day
# [22] = tested on: KYSE-30; assay: Induction of apoptosis in human KYSE-30 cells assessed as late apoptotic cells at 20 nmol/L incubated for 48 hrs by Annexin V-FITC/PI staining based flow cytometry analysis (reference value: 5.27 %); assay type: functional
# [23] = tested on: Esophageal squamous cell carcinoma cell; assay: Induction of apoptosis in human Esophageal squamous cell carcinoma cell assessed as increase in caspase-3 activation at 5 to 20 nmol/L incubated for 48 hrs by Western blot analysis; assay type: functional, cell-based; settings: dose 5-20 nmol/L
# [24] = tested on: HCT-116; assay: cells; settings: Homo sapiens, HCT-116, 48 h
# Description: Antiproliferative activity against human HCT-116 cells assessed as inhibition of cell proliferation incubated for 48 hrs by MTT assay
# [25] = tested on: KYSE-30; assay: Induction of apoptosis in human KYSE-30 cells assessed as late apoptotic cells at 5 nmol/L incubated for 48 hrs by Annexin V-FITC/PI staining based flow cytometry analysis (reference value: 5.27 %); assay type: functional
# [26] = tested on: KYSE-70 cell line; assay: Induction of apoptosis in human KYSE-70 cells assessed as early apoptotic cells at 5 nmol/L incubated for 48 hrs by Annexin V-FITC/PI staining based flow cytometry analysis (reference value: 1.78%); assay type: functional
# [27] = tested on: Esophageal squamous cell carcinoma cell; assay: Induction of apoptosis in human Esophageal squamous cell carcinoma cell assessed as increase in caspase-7 activation at 5 to 20 nmol/L incubated for 48 hrs by Western blot analysis; assay type: functional, cell-based; settings: dose 5-20 nmol/L
# [28] = Toxicity in female BALB/c-nu nude mouse xenografted with human KYSE-30 cells assessed as effect on serum uric acid level at 6 to 12 mg/kg, ip administered for 15 days by biochemical analysis; assay type: organism-based; settings: in vivo, 360 h, dose 6-12 mg/kg, time 15 day
# [29] = tested on: KYSE-270; assay: Antiproliferative activity against human KYSE-270 cells assessed as inhibition of cell growth incubated for 48 hrs by MTT assay; assay type: functional, cell-based; settings: KYSE-270, 48 h
# [30] = tested on: KYSE-30; assay: Induction of apoptosis in human KYSE-30 cells assessed as viable cells at 20 nmol/L incubated for 48 hrs by Annexin V-FITC/PI staining based flow cytometry analysis (reference value: 88.76 %); assay type: functional; settings: read-out: Activity
# [31] = tested on: MGC-803; assay: Antiproliferative activity against human MGC-803 cells assessed as inhibition of cell proliferation incubated for 48 hrs by MTT assay; assay type: functional, cell-based; settings: MGC-803, 48 h
# [32] = tested on: KYSE-450; assay: Antiproliferative activity against human KYSE-450 cells assessed as inhibition of cell growth incubated for 48 hrs by MTT assay; assay type: functional, cell-based; settings: KYSE-450, 48 h
smiles,measurement,setting,value
COc1ccc(-c2cnoc2-c2cc(C)nc3ccccc23)cc1,IC50,[1],13.1 nM
same,Activity,[2],2.86%
same,inhibition,[3],Active
same,Activity,[4],Active
same,Activity,[5],46.64%
same,Activity,[6],Active
same,Activity,[7],inactive
same,Activity,[8],Non-Toxic
same,Activity,[9],inactive
same,Activity,[10],Active
same,inhibition,[11],Active
same,Activity,[12],Active
same,Activity,[13],Active
same,inhibition,[14],Active
same,inhibition,[15],Active
same,Activity,[16],Active
same,Activity,[17],Non-Toxic
same,Activity,[18],47.75%
same,Activity,[19],Non-Toxic
same,Activity,[20],Active
same,Activity,[21],Non-Toxic
same,Activity,[22],10.13%
same,Activity,[23],Active
same,IC50,[24],26 nM
same,Activity,[25],11.99%
same,Activity,[26],8.24%
same,Activity,[27],Active
same,Activity,[28],Non-Toxic
same,IC50,[29],41.8 nM
same,viability at 0.02 µM,[30],38.9%
same,IC50,[31],14 nM
same,IC50,[32],19.2 nM
